Laboratory results as given in patent publication US20260365653A1, “IRREVERSIBLE MUTEGFR INHIBITORS” (Bayer Aktiengesellschaft, priority 2022, published 2026).

What was measured:
[1] = biological target: T1, mutEGFR (D770_N771insNPG, T790) (Homo sapiens, UniProt P00533, INS770NPG/T790M); assay: mutEGFR (D770_N771insNPG, T790) kinase assay; type: biochemical; settings: Table 2a, D770_N771insNPG
T1 construct: exact insNPG construct not described; in-house EGFR proteins were N-terminal GST fusions from baculovirus/insect cells (borders R669-A1210 given only for WT, insSVD, insASV)
T1 sequence (P00533 with tags, fused parts or gaps INS770NPG/T790M limits assumed): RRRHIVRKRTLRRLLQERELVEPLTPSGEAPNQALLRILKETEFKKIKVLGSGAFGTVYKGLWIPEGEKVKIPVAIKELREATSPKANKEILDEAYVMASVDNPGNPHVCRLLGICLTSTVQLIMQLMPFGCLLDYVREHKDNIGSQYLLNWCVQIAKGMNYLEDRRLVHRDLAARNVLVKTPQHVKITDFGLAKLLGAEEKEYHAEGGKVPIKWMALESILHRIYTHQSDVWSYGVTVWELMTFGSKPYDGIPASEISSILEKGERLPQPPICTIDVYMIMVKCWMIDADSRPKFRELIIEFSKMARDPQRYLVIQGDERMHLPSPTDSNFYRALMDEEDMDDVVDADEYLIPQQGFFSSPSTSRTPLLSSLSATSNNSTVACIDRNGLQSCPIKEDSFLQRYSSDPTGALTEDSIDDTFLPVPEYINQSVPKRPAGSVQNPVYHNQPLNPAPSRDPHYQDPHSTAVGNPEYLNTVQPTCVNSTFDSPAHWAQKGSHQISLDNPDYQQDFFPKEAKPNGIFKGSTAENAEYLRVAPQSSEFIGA
From the text: The different EGFR proteins used in the biochemical kinase activity inhibition assays were generated inhouse by expression in insect cells using Baculo Virus system and subsequent purification as described in the following paragraphs.
The cDNAs encoding the various protein sequences from human EGFR human (P00533) were optimized for expression in eukaryotic cells and synthesized by the GeneArt Technology at Life Technologies.

BA/F3 (insSVD) cells = assay: Ba/F3-EGFR-insSVD cell survival assay (Cell Titer-Glo); type: cell-based; settings: Mus musculus, BaF3, 48 h, Table 3a, cell survival, Cell Titer-Glo, with 10 ng/ml EGF, without IL-3
Method in brief: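 CellTiter-Glo luminescence read after 48 h compound exposure at 37° C. Cells: IL-3-independent Ba/F3 lines transduced with EGFR-insSVD or EGFR-insSVD T790M, maintained on 10 ng/ml EGF and seeded at 4000 per well.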

[2] = biological target: T2, mutEGFR (D770_N771insSVD) (Homo sapiens, UniProt P00533, DUP768-770); assay: Exon20-Mutant-EGFR (D770_N771insSVD) kinase assay (TR-FRET); type: biochemical; settings: mutEGFR (D770_N771insSVD) kinase assay IC50, Table 2a; D770_N771insSVD; 2 mM ATP
T2 construct: GST-EGFR #3 (SVD between D770 and N771); made in house; host or cells: Sf9 insect cells (baculovirus)
T2 sequence (P00533 with tags, fused parts or gaps DUP768-770): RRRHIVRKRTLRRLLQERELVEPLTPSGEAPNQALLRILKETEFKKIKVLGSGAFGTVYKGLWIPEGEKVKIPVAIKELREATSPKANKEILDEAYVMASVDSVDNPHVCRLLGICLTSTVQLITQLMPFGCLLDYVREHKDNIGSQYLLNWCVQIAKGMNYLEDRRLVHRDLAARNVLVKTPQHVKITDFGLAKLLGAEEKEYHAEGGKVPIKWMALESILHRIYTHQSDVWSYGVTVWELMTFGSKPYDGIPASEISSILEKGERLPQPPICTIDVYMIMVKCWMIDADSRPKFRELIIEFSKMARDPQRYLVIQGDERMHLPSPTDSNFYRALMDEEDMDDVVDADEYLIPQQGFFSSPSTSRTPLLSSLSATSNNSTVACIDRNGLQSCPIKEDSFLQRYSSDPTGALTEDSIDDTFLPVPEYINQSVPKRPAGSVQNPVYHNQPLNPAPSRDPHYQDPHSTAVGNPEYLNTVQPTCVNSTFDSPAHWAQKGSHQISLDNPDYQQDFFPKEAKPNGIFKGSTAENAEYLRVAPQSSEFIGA

IC50 [1] [nM]	IC50 [2] [nM]	SMILES	IC50 (BA/F3 (insSVD) cells) [nM]
1.03	0.216	C=CC(=O)N1Cc2c(-c3ccncc3)c(-c3ccc(Cl)cc3F)nn2C[C@@H]1C [Example 270, 1-[(6S)-2-(4-chloro-2-fluorophenyl)-6-methyl-3-(pyridin-4-yl)-6,7-dihydropyrazolo[1,5-a]pyrazin-5(4H)-yl]prop-2-en-1-one]	11.5
0.425	0.351	C=CC(=O)N1CCn2nc(-c3ccc4c(C)c[nH]c4c3)c(-c3ccncc3)c2C1 [Example 108, 1-[2-(3-methyl-1H-indol-6-yl)-3-(pyridin-4-yl)-6,7-dihydropyrazolo[1,5-a]pyrazin-5(4H)-yl]prop-2-en-1-one]	33.3
3.5	16.8	C[C@H]1Cn2nc(-c3cccc(C#N)c3)c(-c3ccncc3)c2CN1C(=O)/C=C/CN(C)C [Example 101, 3-[(6S)-5-[(2E)-4-(dimethylamino)but-2-enoyl]-6-methyl-3-(pyridin-4-yl)-4,5,6,7-tetrahydropyrazolo[1,5-a]pyrazin-2-yl]benzonitrile]	44.6
0.351	0.188	C=CC(=O)N1Cc2c(-c3ccncc3)c(-c3ccc4cc(F)sc4c3)nn2CC1C (racemic) [Example 229, 1-[(RS)-2-(2-fluoro-1-benzothiophen-6-yl)-6-methyl-3-(pyridin-4-yl)-6,7-dihydropyrazolo[1,5-a]pyrazin-5(4H)-yl]prop-2-en-1-one]	17.1
30.3	249	C=CC(=O)N1Cc2c(-c3ccnc4[nH]cc(C)c34)c(-c3cccc(C#N)c3)nn2C[C@@H]1C [Example 283, 3-[(6S)-6-methyl-3-(3-methyl-1H-pyrrolo[2,3-b]pyridin-4-yl)-5-(prop-2-enoyl)-4,5,6,7-tetrahydropyrazolo[1,5-a]pyrazin-2-yl]benzonitrile]	37.5
5.1	1.09	O=C(/C=C/CF)N1CCn2nc(-c3ccc(Cl)cc3F)c(-c3ccncc3)c2C1 [Example 73, (2E)-1-[2-(4-chloro-2-fluorophenyl)-3-(pyridin-4-yl)-6,7-dihydropyrazolo[1,5-a]pyrazin-5(4H)-yl]-4-fluorobut-2-en-1-one]	61
50.3	50.5	C=CC(=O)N1CCn2nc(-c3cccc(C#N)c3F)c(-c3ccncc3)c2C1 [Example 120, 2-fluoro-3-[5-(prop-2-enoyl)-3-(pyridin-4-yl)-4,5,6,7-tetrahydropyrazolo[1,5-a]pyrazin-2-yl]benzonitrile]	933
4.52	12.4	C=CC(=O)N1Cc2c(-c3ccncc3)c(-c3cccc(C#N)c3)nn2C[C@H]1C [Example 126, 3-[(6R)-6-methyl-5-(prop-2-enoyl)-3-(pyridin-4-yl)-4,5,6,7-tetrahydropyrazolo[1,5-a]pyrazin-2-yl]benzonitrile]	86.5
1.74	1.02	C=CC(=O)N1CCn2nc(-c3ccccc3)c(-c3ccncc3)c2C1 [Example 189, 1-[2-phenyl-3-(pyridin-4-yl)-6,7-dihydropyrazolo[1,5-a]pyrazin-5(4H)-yl]prop-2-en-1-one]	22.3
3.08	0.812	C=CC(=O)N1CCn2nc(-c3ccc(CC)cc3)c(-c3ccncc3)c2C1 [Example 140, 1-[2-(4-ethylphenyl)-3-(pyridin-4-yl)-6,7-dihydropyrazolo[1,5-a]pyrazin-5(4H)-yl]prop-2-en-1-one]	51.4
9.96	2.94	C=C(F)C(=O)N1Cc2c(-c3ccncc3)c(-c3ccc(Cl)cc3F)nn2CC1C (racemic) [Example 237, 1-[(RS)-2-(4-chloro-2-fluorophenyl)-6-methyl-3-(pyridin-4-yl)-6,7-dihydropyrazolo[1,5-a]pyrazin-5(4H)-yl]-2-fluoroprop-2-en-1-one]	126
1.26	0.626	C=CC(=O)N1CCn2nc(-c3ccc(Cl)cc3CO)c(-c3ccncc3)c2C1 [Example 191, 1-{2-[4-chloro-2-(hydroxymethyl)phenyl]-3-(pyridin-4-yl)-6,7-dihydropyrazolo[1,5-a]pyrazin-5(4H)-yl}prop-2-en-1-one]	32.9

Continued, compound first:

SMILES	IC50 [1] [nM]	IC50 [2] [nM]	IC50 (BA/F3 (insSVD) cells) [nM]
O=C(C#CCN1CCOCC1)N1CCn2nc(-c3ccc(F)cc3)c(-c3ccncc3)c2C1 [Example 68, 1-[2-(4-fluorophenyl)-3-(pyridin-4-yl)-6,7-dihydropyrazolo[1,5-a]pyrazin-5(4H)-yl]-4-(morpholin-4-yl) but-2-yn-1-one]	11.9	5.33	60.2
CN(C)C/C=C/C(=O)N1Cc2c(-c3ccncc3)c(-c3ccc(F)cc3)nn2C(C)(C)C1 [Example 213, (2E)-4-(dimethylamino)-1-[2-(4-fluorophenyl)-7,7-dimethyl-3-(pyridin-4-yl)-6,7-dihydropyrazolo[1,5-a]pyrazin-5(4H)-yl]but-2-en-1-one]	3.27	0.902	112
CN(C)C/C=C/C(=O)N1CCn2nc(-c3ccc4occc4c3)c(-c3ccncc3)c2C1 [Example 199, (2E)-1-[2-(1-benzofuran-5-yl)-3-(pyridin-4-yl)-6,7-dihydropyrazolo[1,5-a]pyrazin-5(4H)-yl]-4-(dimethylamino)but-2-en-1-one]	2.05	0.672	132
O=C(/C=C/CN1CCCCC1)N1CCn2nc(-c3ccc(Cl)cc3)c(-c3ccncc3)c2C1 [Example 163, (2E)-1-[2-(4-chlorophenyl)-3-(pyridin-4-yl)-6,7-dihydropyrazolo[1,5-a]pyrazin-5(4H)-yl]-4-(piperidin-1-yl) but-2-en-1-one]	0.619	0.16	47.4
CN(C)C/C=C/C(=O)N1CCn2nc(-c3ccc(OC(F)F)cc3)c(-c3ccncc3)c2C1 [Example 144, (2E)-1-{2-[4-(difluoromethoxy)phenyl]-3-(pyridin-4-yl)-6,7-dihydropyrazolo[1,5-a]pyrazin-5(4H)-yl}-4-(dimethylamino)but-2-en-1-one]	31	8.69	1490
C=CC(=O)N1CCn2nc(-c3ccc(OC(F)(F)F)cc3)c(-c3ccncc3)c2C1 [Example 129, 1-[3-(pyridin-4-yl)-2-[4-(trifluoromethoxy)phenyl]-6,7-dihydropyrazolo[1,5-a]pyrazin-5(4H)-yl]prop-2-en-1-one]	16	2.97	106
O=C(/C=C/CO)N1CCn2nc(-c3ccc(F)cc3)c(-c3ccncc3)c2C1 [Example 70, (2E)-1-[2-(4-fluorophenyl)-3-(pyridin-4-yl)-6,7-dihydropyrazolo[1,5-a]pyrazin-5(4H)-yl]-4-hydroxybut-2-en-1-one]	90.2	26.1	862
CN(C)C/C=C/C(=O)N1Cc2c(-c3ccncc3)c(-c3ccc(Cl)cc3)nn2CC1(C)C [Example 217, (2E)-1-[2-(4-chlorophenyl)-6,6-dimethyl-3-(pyridin-4-yl)-6,7-dihydropyrazolo[1,5-a]pyrazin-5(4H)-yl]-4-(dimethylamino)but-2-en-1-one]	59.8	6.2	277
